Data from article PMC10746280, “Bacterial efflux pump modulators prevent bacterial growth in macrophages and under broth conditions that mimic the host environment” (mBio, 2023).

What was measured:
[1] = test system: Bacillus subtilis expressing mNeongreen-FtsZ; assay: Membrane voltage disruption assay (mNeongreen-FtsZ delocalization); format: cell-based
Source text: We therefore monitored membrane integrity in the presence of EPM analogs by evaluating membrane voltage with mNeongreen-FtsZ ([28][–][30]). The FtsZ protein localizes to the bacterial septum based on membrane potential, and rapid delocalization of fluorescent FtsZ reporters occurs when voltage across the membrane is disrupted ([31], [32]). We monitored mNeongreen-FtsZ localization in a Gram-positive bacterium, Bacillus subtilis, to eliminate the potentially confounding issue of the passage of EPM analogs through the outer membrane at different rates ([24], [33][–][36]).
To determine whether exposure to compound dislodges FtsZ from the cell septum, an overnight culture of Bacillus subtilis grown in LPM at pH 5.5 (LPM 5.5) expressing mNeonGreen-FtsZ (strain DK5092) was exposed to DMSO, CCCP (100 µM) or an EPM analog (150 µM) for 15 or 30 min, as indicated. Bacteria were immobilized on 1% agarose pads made with LPM under a coverslip. To set the threshold value for the FtsZ septal ring, mNeonGreen signal (excitation 488 nm, emission 525 nm) from at least 20 DMSO-treated cells was quantified using a CV1000 confocal microscope with a 100× oil, NA = 1.4 objective. A background-subtracted image was made by subtracting the median intensity from full original images. A signal threshold of ≥400 arbitrary units per pixel was set (Fig. 4B). Then, we manually confirmed that mNeonGreen signal above threshold was at the center of the bacterial rod. We examined 50 cells per sample from at least three biological replicates (≥150 cells per condition). A MATLAB program (https://github.com/Betterton-Lab/FtsZ-Quantification) counted the number of pixels above threshold per cell and averaged this value across all cells for each condition and this value is reported in the graph (Fig. 4C).

[2] = test system: S. Typhimurium SL1344 (sifB::gfp) in RAW 264.7 macrophages; assay: SAFIRE macrophage assay: intracellular bacterial load (GFP signal within macrophages); format: cell-based, Salmonella enterica serotype Typhimurium
Procedure, shortened: (§1)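 RAW 264.7 macrophages infected with S. Typhimurium SL1344 sifB::gfp (MOI ~30), gentamicin 40 µg/mL, then compound from 2 h to 18 h post-infection. Confocal imaging with MitoTracker and DAPI; toxicity as adherent MitoTracker-positive macrophage count, bacterial load as GFP+ macrophage area.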

RAW 264.7 macrophages = assay: SAFIRE macrophage assay: host toxicity (adherent macrophage count, morphology); format: cell-based
Procedure, shortened: as §1

S. Typhimurium = assay: Checkerboard growth assays with antibiotics in LPM 5.5 (FICI and MuSyC analyses); format: cell-based; design: Antibiotic MIC Combination: unit not given here; EPM MIC Combination: unit: µM; conditions: for log10(α1) [95% CI] (log-fold-change in potency of EPM due to the antibiotic) / Βobs [95% CI] (proportion increase in maximal efficacy of the antibiotic) / log10(α2) [95% CI] (log-fold-change in potency of the antibiotic due to the EPM): MuSyC fit; for Antibiotic MIC Combination / EPM MIC Combination / FICI value: LPM 5.5
Procedure: To examine whether the EPM analogs interact additively or synergistically with antibiotics, checkerboard growth assays were carried out in LPM 5.5. We compared three antibiotics (ciprofloxacin, doxycycline, erythromycin) and three EPM analogs (CU032, CU187, CU232) and the EPM35 parent compound (Fig. 6A). Standard fractional inhibitory concentration index (FICI) analyses supported synergy between the EPM analogs and ciprofloxacin (Fig. 6B). Since FICI values cannot distinguish between synergy due to changes in potency (activity) versus efficacy (the extent of the effect) ([42], [43]), we used the MuSyC synergy algorithm to measure EPM-antibiotic synergy ([44], [45]). The data were well fit by the MuSyC equation, with an R^2 of greater than 0.96 for all checkerboards (Table S2). […] Moreover, the consistency in the synergy of potency values across the antibiotics with different EPM analogs points toward a shared mechanism of action: the EPMs could modify the pharmacodynamics of the efflux process and prevent export of specific substrates through interactions with AcrB. We posit that the EPMs differentially reduce antibiotic export resulting in a higher effective intracellular concentration of the antibiotic.
Overnight cation-adjusted MHB-grown cultures of SL1344 or SA10801 were diluted in MHB or LPM 5.5 to an optical density at 600 nm (OD600) of 0.01 and distributed into polystyrene 96-well flat-bottom plates. EPM analogs were added at concentrations up to 300 µM, near the limit of solubility. The antibiotics ciprofloxacin, doxycycline, and erythromycin were added up to concentrations of 2 µM, 2 µM, and 8 µM, respectively. The final DMSO concentration was at or below 2% in all wells. Plates were grown at 37°C with shaking for 18 h and OD600 was monitored (BioTek Synergy H1, BioTek Eon). Each experiment was performed with biological triplicate or higher as indicated. Percent growth was determined by normalizing to OD600 reads in wells containing no D66 or antibiotic. Checkerboards in LPM 5.5 medium were performed with culture grown overnight in LB and diluted to an OD600 of 0.01 in LPM 5.5 and compounds/antibiotics were added as previously described. MuSyC analysis was pursued as previously described ([44], [45]). Briefly, the 2D Hill equation was fit to the normalized growth inhibition data from the checkerboards using a bounded non-linear least square regression algorithm. A Monte Carlo sampling method was used to compute the 95% CI in the parameter fits from three biological replicates. The bounds on the parameters minimal and maximal efficacy of the antibiotics and EPMs (E0,Emax) were [0.99,1.01] and [0,1], respectively ([44], [45]).

[3] = target: Klebsiella pneumoniae AcrB multidrug efflux pump; design: method as in PMID 37067435; conditions: K. pneumoniae AcrB; cited from earlier work
[4] = 5 uM, 'Toxic' given instead of a score
[5] = 25 uM, 'Toxic' given instead of a score
[6] = 5 uM compound, n=1, DMSO solvent control = 98, rifampicin 2 μg/mL = 65
[7] = 25 uM compound, n=1, DMSO solvent control = 98, rifampicin 2 μg/mL = 65
[8] = 5 uM compound, n=1, DMSO solvent control = 100
[9] = 25 uM compound, n=1, DMSO solvent control = 100

Compound: N#CC(C#N)=NNc1cccc(Cl)c1 [CCCP, carbonyl cyanide m-chlorophenyl hydrazone, reference compound]
- effect on FtsZ localization ([1]; 100 µM): delocalized FtsZ

Compound: NC1CCN(CC(O)COc2ccc(Cl)cc2)CC1 (stereo not drawn) [CU187]
- 5 uM Avg Antibacterial Score [2, 4]: 25
- 25 uM Avg Antibacterial Score [2, 5]: 24
- IC50 ([2]; Salmonella enterica, TYPHIMURIUM, RAW264.7, read-out: SAFIRE IC50): 0.0004 µM
- 5 uM Avg Cell # Score (RAW 264.7 macrophages; 5 uM): 121
- 25 uM Avg Cell # Score (RAW 264.7 macrophages; 25 uM): 98
- effect on mNeongreen-FtsZ ring size / localization ([1]; 150 µM, 15 min, LPM 5.5): did not alter FtsZ localization
- log10(α1) [95% CI] (log-fold-change in potency of EPM due to the antibiotic) (S. Typhimurium; Ciprofloxacin): 0.33 [0.19,0.37]
- Βobs [95% CI] (proportion increase in maximal efficacy of the antibiotic) (S. Typhimurium; Ciprofloxacin): 0.01 [-0.01,0.04]
- log10(α1) [95% CI] (log-fold-change in potency of EPM due to the antibiotic) (S. Typhimurium; Doxycycline): 0.32 [-0.07,0.39]
- log10(α2) [95% CI] (log-fold-change in potency of the antibiotic due to the EPM) (S. Typhimurium; Doxycycline): 0.46 [0.37,0.47]
- Βobs [95% CI] (proportion increase in maximal efficacy of the antibiotic) (S. Typhimurium; Doxycycline): 0.02 [-0.0,0.02]
- log10(α2) [95% CI] (log-fold-change in potency of the antibiotic due to the EPM) (S. Typhimurium; Erythromycin): 0.93 [0.85,0.96]
- Βobs [95% CI] (proportion increase in maximal efficacy of the antibiotic) (S. Typhimurium; Erythromycin): 0.04 [0.03,0.04]
- Antibiotic MIC Combination (S. Typhimurium; ciprofloxacin (CIPRO) MIC in combination with the EPM): 0.2
- Antibiotic MIC Combination (S. Typhimurium; doxycycline (DOXY) MIC in combination with the EPM): 1
- EPM MIC Combination (S. Typhimurium; with ciprofloxacin (CIPRO)): 66
- FICI value (S. Typhimurium; with ciprofloxacin (CIPRO)): 0.27
- EPM MIC Combination (S. Typhimurium; with doxycycline (DOXY)): 100
- FICI value (S. Typhimurium; with doxycycline (DOXY)): 0.45
- EPM MIC Combination (S. Typhimurium; with erythromycin (ERY)): 100
- FICI value (S. Typhimurium; with erythromycin (ERY)): 0.58

Compound: NCCC1CCN(CC(O)COc2cc(Cl)cc(Cl)c2)C1 (stereo not drawn) [CU252]
- 5 uM Avg Antibacterial Score [2, 6]: 98
- 25 uM Avg Antibacterial Score [2, 7]: 77
- 5 uM Avg Cell # Score (RAW 264.7 macrophages; [8]): 114
- 25 uM Avg Cell # Score (RAW 264.7 macrophages; [9]): 117

Compound: O[C@@H](COc1ccc(Cl)c(Cl)c1)CN1CCCCC1 [CU253]
- 5 uM Avg Antibacterial Score [2, 6]: 96
- 25 uM Avg Antibacterial Score [2, 7]: 57
- 5 uM Avg Cell # Score (RAW 264.7 macrophages; [8]): 116
- 25 uM Avg Cell # Score (RAW 264.7 macrophages; [9]): 120

Compound: O[C@@H](COc1ccc(Cl)c(Cl)c1)CN1CCCC1 [CU254]
- 5 uM Avg Antibacterial Score [2, 6]: 89
- 25 uM Avg Antibacterial Score [2, 7]: 51
- 5 uM Avg Cell # Score (RAW 264.7 macrophages; [8]): 119
- 25 uM Avg Cell # Score (RAW 264.7 macrophages; [9]): 125

Compound: CC(C)(C)c1nc(NC(=N)N)sc1Br [EPM30]
- 5 uM Avg Antibacterial Score [2, 4]: 92
- 25 uM Avg Antibacterial Score [2, 5]: Toxic
- 5 uM Avg Cell # Score (RAW 264.7 macrophages; 5 uM): 97
- 25 uM Avg Cell # Score (RAW 264.7 macrophages; 25 uM): 66

Compound: Cc1ccc(Sc2cccc3nc(N)nc(N)c23)cc1 [EPM43]
- 5 uM Avg Antibacterial Score [2, 4]: 81
- 25 uM Avg Antibacterial Score [2, 5]: Toxic
- 5 uM Avg Cell # Score (RAW 264.7 macrophages; 5 uM): 93
- 25 uM Avg Cell # Score (RAW 264.7 macrophages; 25 uM): 67

Compound: CO[C@H]1/C=C/O[C@@]2(C)Oc3c(C)c(O)c4c(O)c(c(/C=N/N5CCN(C)CC5)c(O)c4c3C2=O)NC(=O)/C(C)=C\C=C\[C@H](C)[C@H](O)[C@@H](C)[C@@H](O)[C@@H](C)[C@H](OC(C)=O)[C@@H]1C [Rifampicin]
- Avg Antibact Score ([2]; control, rifampicin 2 μg/mL, DMSO = 98): 65
- Avg Cell # Score (RAW 264.7 macrophages; control, rifampicin 2 μg/mL, DMSO = 100): 111

Compound: CC[C@H]1OC(=O)[C@H](C)[C@@H](O[C@H]2C[C@@](C)(OC)[C@@H](O)[C@H](C)O2)[C@H](C)[C@@H](O[C@@H]2O[C@H](C)C[C@H](N(C)C)[C@H]2O)[C@](C)(O)C[C@@H](C)C(=O)[C@H](C)[C@@H](O)[C@]1(C)O [erythromycin]
- Kd [3]: 14.4 µM
